Experimental data taken from paper PMC7047268 (ACS Central Science, 2020).

Assays:
5-HT2A = 5-HT2A (Homo sapiens, UniProt P28223); format: cell-based; settings: for Gq agonism for 5-HT2A: agonist mode
5-HT2B = 5-HT2B (Homo sapiens, UniProt P41595); test: cell-based; format: cell-based; settings: for Gq agonism for 5-HT2B: agonist mode
5-HT2C [1] = molecular target: T1, 5-HT2C (Homo sapiens, UniProt P28335); test: cell-based; format: cell-based
T1 sequence (P28335 33-458): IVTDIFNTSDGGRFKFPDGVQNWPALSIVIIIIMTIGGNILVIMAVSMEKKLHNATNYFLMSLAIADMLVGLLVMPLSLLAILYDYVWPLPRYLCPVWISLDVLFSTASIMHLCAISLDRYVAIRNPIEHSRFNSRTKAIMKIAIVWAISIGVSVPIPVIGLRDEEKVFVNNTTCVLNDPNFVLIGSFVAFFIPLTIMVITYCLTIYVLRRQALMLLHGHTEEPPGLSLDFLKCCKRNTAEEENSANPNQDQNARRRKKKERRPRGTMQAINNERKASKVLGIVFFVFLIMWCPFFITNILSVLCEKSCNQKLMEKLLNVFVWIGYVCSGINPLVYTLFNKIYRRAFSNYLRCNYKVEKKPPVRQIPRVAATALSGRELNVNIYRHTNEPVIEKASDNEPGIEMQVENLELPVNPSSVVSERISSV

[2] = molecular target: T2, human 5-HT2C and its mutants (Homo sapiens, UniProt P28335); test: Tango β-arrestin2 recruitment assay, HTLA cells; format: cell-based; settings: for β-arrestin2 recruitment agonist activity (Tango): wild-type 5-HT2C, agonist mode
T2 sequence (P28335 33-458): T1 sequence (P28335 33-458)

[3] = test system: overnight fasting male C57BL/6J mice; test: Acute feeding suppression; format: in vivo; settings: intraperitoneal; 1857 30 mg/kg, lorcaserin 10 mg/kg; vs vehicle
[4] = test system: wild-type or mutant 5-HT2C; test: Radiolabeled ligand binding assay, 3H-mesulergine, transfected CHO cells; set-up: species or system human
[5] = test system: diet-induced obesity (DIO) mice; test: DIO mice feeding suppression; format: in vivo
5-HT2C [6] = molecular target: T1, 5-HT2C; format: cell-based
[7] = 30 mg/kg i.p. daily for 10 days
[8] = 30 mg/kg i.p. daily for 10 days, vs vehicle
[9] = 30 mg/kg i.p. daily, from day 5 until end of study

5-HT2B, sequence (P41595 whole entry): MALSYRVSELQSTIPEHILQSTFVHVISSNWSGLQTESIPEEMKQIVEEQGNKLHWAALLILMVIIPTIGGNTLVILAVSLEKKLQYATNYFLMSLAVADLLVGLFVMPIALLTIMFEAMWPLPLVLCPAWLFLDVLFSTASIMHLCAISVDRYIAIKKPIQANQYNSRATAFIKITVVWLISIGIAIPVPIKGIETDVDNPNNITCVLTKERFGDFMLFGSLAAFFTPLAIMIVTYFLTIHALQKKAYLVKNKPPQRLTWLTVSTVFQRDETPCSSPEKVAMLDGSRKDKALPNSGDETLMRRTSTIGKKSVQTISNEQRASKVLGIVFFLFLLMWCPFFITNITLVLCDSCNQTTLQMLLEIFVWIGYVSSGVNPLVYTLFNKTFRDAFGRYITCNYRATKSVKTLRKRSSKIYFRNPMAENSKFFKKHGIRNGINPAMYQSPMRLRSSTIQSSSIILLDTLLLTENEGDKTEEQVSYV
5-HT2A, sequence (P28223 whole entry): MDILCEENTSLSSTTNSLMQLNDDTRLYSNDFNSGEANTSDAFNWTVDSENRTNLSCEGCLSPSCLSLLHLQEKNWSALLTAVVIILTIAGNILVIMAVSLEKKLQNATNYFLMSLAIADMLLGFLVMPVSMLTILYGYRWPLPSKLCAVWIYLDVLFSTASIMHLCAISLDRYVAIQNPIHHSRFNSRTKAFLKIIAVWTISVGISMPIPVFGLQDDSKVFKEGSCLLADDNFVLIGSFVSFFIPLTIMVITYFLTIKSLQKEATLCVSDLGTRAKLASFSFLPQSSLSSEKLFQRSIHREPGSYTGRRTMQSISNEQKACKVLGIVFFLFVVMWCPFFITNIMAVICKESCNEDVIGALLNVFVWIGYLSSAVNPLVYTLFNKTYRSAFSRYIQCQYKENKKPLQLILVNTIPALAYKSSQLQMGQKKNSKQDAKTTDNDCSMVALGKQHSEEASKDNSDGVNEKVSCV

Compound: COc1cc2c3c(c1OC)-c1ccccc1CC3NCC2 (centres unmarked) [Compound 15781, nornuciferine]
- Gq agonism for 5-HT2A (5-HT2A): none of them exhibited measurable Gq agonism
- IC50 (5-HT2B): > 10000 nM
- Gq agonism for 5-HT2B (5-HT2B): none of them exhibited measurable Gq agonism
- EC50 (5-HT2C [1]): 653 nM
- Emax (5-HT2C [1]; HEK-293T, read-out: Emax relative to 5-HT): 65.6%

Compound: COc1cc2c3c(c1OC)-c1ccccc1C[C@H]3N(C)CC2 [Compound 15856, Nuciferine]
- antagonism of Gq-mediated activity at 5-HT2A (5-HT2A): sub-micromolar potency
- antagonism of Gq-mediated activity at 5-HT2B (5-HT2B): sub-micromolar potency
- antagonism of Gq-mediated activity at 5-HT2C (5-HT2C [1]): sub-micromolar potency

Compound: C[C@H]1CNCCc2ccc(Cl)cc21 [Lorcaserin, lorcaserin, reference compound]
- β-arrestin2 recruitment agonist activity (Tango) [2]: full agonist
- acute food intake suppression [3]: suppressed food intake up to 2 h postinjection
- agonist efficacy class in G protein pathway at 5-HT2C (5-HT2C [1]): full agonist

Compound: (R)-asimilobine [Compound 1857]
- enhancement of binding [4]: 6 fold
- antagonism of β-arrestin signaling (Tango) ([2]; against agonist ergotamine): acts as an antagonist
- β-arrestin2 recruitment agonist activity (Tango) [2]: no β-arrestin recruitment activity
- blood glucose relative to vehicle [5, 7]: −20.9%
- liver TC and TG levels [5, 7]: decreased liver TC and TG levels
- serum total cholesterol (TC) relative to vehicle [5, 7]: −7.9%
- serum total triglyceride (TG) relative to vehicle [5, 7]: unchanged
- total organ weight of epididymal white adipose tissue (WAT) [5, 8]: −29.3%
- total organ weight of inguinal WAT [5, 8]: −46.4%
- body weight in DIO mice [5, 9]: weight loss
- food intake in DIO mice [5, 9]: Significant reduction of food intake
- acute food intake suppression [3]: reduced food intake from 30 min to 4 h postinjection
- Gq agonism for 5-HT2A (5-HT2A): none of them exhibited measurable Gq agonism
- Gq agonism for 5-HT2B (5-HT2B): none of them exhibited measurable Gq agonism
- β-arrestin2 recruitment agonist activity (BRET) (5-HT2C [6]): does not possess agonist activity
- antagonism of β-arrestin2 association (BRET) (5-HT2C [6]; agonist lorcaserin (4 μM)): acts as an antagonist for β-arrestin2 association
- in vitro potency for 5-HT2C activation lower than that of lorcaserin (5-HT2C [1]): 2 orders of magnitude
- Emax relative to 5-HT (5-HT2C [1]; Gq-mediated calcium signaling at 5-HT2C): 86.1%
